7 molecules from patent US11564923B2, “Compounds and pharmaceutical compositions thereof for the treatment of inflammatory disorders” (Galapagos NV, priority 2017, dated 2023) can be followed below.

In assay [1] the target is T1, Recombinant human TYK2 catalytic domain (amino acids 871-1187) (Homo sapiens, UniProt P29597).
T1 construct: catalytic domain (amino acids 871-1187)
T1 sequence (P29597 871-1187): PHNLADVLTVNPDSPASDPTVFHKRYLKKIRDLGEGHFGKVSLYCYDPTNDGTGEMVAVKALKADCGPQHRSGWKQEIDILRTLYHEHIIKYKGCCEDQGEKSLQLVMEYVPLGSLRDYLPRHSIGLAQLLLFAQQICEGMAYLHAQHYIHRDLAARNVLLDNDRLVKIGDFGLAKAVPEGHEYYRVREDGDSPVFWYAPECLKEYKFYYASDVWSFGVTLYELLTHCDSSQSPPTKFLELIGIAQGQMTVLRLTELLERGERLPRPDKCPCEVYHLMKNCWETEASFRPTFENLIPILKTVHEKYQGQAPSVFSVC
The experiment in a line: TYK2 radioactive assay polyGT substrate. Further: 0.1 µM ATP. Type of assay: biochemical. In short, it runs like this: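 Reaction at 30° C. for 120 min, ended with 150 mM phosphoric acid, washed, counted; percent inhibition scaled between vehicle and 10 μM staurosporine cpm.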

Assay [2] relates to IL-12 activation of STAT4 in NK-92 cells. The experiment in a line: IL-12 activation of STAT4 in NK-92 cells using MSD as readout. The format is cell-based. To be noted: Homo sapiens, NK92; NK-92 cells, rhIL-12 25 ng/mL, MSD readout; read-out: IL12 pSTAT4 IC50.
The target of assay [3] is T1, Recombinant human TYK2 catalytic domain (amino acids 871-1187). The experiment in a line: TYK2 ADPglo kinase assay. Further: 12 µM ATP. The format is biochemical. How it is done: After 120 min at room temperature, reactions were stopped and the remaining ATP is depleted by adding 5 μL/well of ADP Glo Reagent (Promega, catalog number V912B). After 40 min at room temperature, 10 μl Kinase Detection Reagent (Kinase Detection Substrate (Promega, catalog number V914B) dissolved in Kinase Detection Buffer (Promega, catalog number V913B)) is added to convert ADP to ATP and to measure this newly synthesized ATP in a luciferase/luciferin reaction. Readout is performed after 30 min incubation at room temperature using the Envision. Kinase activity is calculated by subtracting the relative light units (RLU) obtained in the presence of a positive control inhibitor (10 μM staurosporine) from the RLU obtained in the presence of vehicle. The ability of a test compound to inhibit this activity (or percentage inhibition) is determined as:
RLU test compound=RLU determined for sample with test compound present
RLU control=RLU determined for sample with positive control inhibitor
RLU vehicle=RLU determined in the presence of vehicle
Dose dilution series were prepared for the compounds enabling the testing of dose-response effects in the TYK2 assay and the calculation of the IC50 for the compound. Each compound is routinely tested at concentration of 20 μM followed by a 1/5 serial dilution, 10 points in a final concentration of 1% DMSO. […] The data are expressed as the average IC50 from the assays.
For orientation: ADP-Glo turns the ADP formed in a reaction into a luminescent signal.

As a reminder, the IC50 is the concentration that inhibits the measured activity by half. For `Cc1cc(C(F)(F)F)ncc1Oc1cc(Nc2cc(N)ncn2)c2ncn(C)c2n1` [Compound 1, N-[3-Methyl-5-(4-methyl-6-trifluoromethyl-pyridin-3-yloxy)-3H-imidazo[4,5-b]pyridin-7-yl]-pyrimidine-4,6-diamine], the half-inhibitory concentration (IC50) in assay [1] amounted to 10.1 nM; in assay [2], 539 nM.
With `Cc1cc(C#N)ncc1Nc1cc(Nc2ccc(C(=O)N(C)C)cn2)c2ncn(C)c2n1` [Compound 67, 6-[[5-[(6-cyano-4-methyl-3-pyridyl)amino]-3-methyl-imidazo[4,5-b]pyridin-7-yl]amino]-N,N-dimethyl-pyridine-3-carboxamide], the IC50 in assay [1] worked out at 3.38 nM; in assay [2], 233 nM.
As to `Cc1cc(C#N)ncc1Oc1cc(Nc2ccc(S(=O)(=O)C(F)F)cc2)c2ncn(C)c2n1` [Compound 68, 5-[7-[4-(difluoromethylsulfonyl)anilino]-3-methyl-imidazo[4,5-b]pyridin-5-yl]oxy-4-methyl-pyridine-2-carbonitrile], the IC50 is 15.7 nM in assay [1] and 1440 nM in assay [2].
In the same order, the values of `Cc1cc(C#N)ncc1Oc1cc(Nc2ccc(S(=O)(=O)C3CC3)cc2)c2ncn(C)c2n1` [Compound 69, 5-[7-(4-cyclopropylsulfonylanilino)-3-methyl-imidazo[4,5-b]pyridin-5-yl]oxy-4-methyl-pyridine-2-carbonitrile] are 6.07 nM and 204 nM.
Turning to `Cc1cc(C#N)ncc1N(c1cc(Nc2cc(N)ncn2)c2ncn(C)c2n1)C1CC1` [Compound 88, 5-[[7-[(6-aminopyrimidin-4-yl)amino]-3-methyl-imidazo[4,5-b]pyridin-5-yl]-cyclopropyl-amino]-4-methyl-pyridine-2-carbonitrile], the concentration for half-maximal inhibition (IC50) came to 0.52 nM in assay [1], 0.11 nM in assay [3] and 90.1 nM in assay [2].
Turning to `Cn1cnc2c(Nc3ccc(S(C)(=O)=O)cn3)cc(NC(C3CC3)C(F)(F)F)nc21` (stereo not shown) [Compound 92, N5-(1-cyclopropyl-2,2,2-trifluoro-ethyl)-3-methyl-N7-(5-methylsulfonyl-2-pyridyl)imidazo[4,5-b]pyridine-5,7-diamine], the concentration for half-maximal inhibition (IC50) worked out at 1 nM in assay [1], 0.58 nM in assay [3] and 282 nM in assay [2].
`CC(C)C(Nc1cc(Nc2cc(N)ncn2)c2ncn(C)c2n1)C(F)(F)F` (stereo not shown) [Compound 93, N7-(6-aminopyrimidin-4-yl)-3-methyl-N5-[2-methyl-1-(trifluoromethyl)propyl)imidazo[4,5-b]pyridine-5,7-diamine]: the half-inhibitory concentration (IC50) is 4.99 nM in assay [1] and 201 nM in assay [2].
